Assay results as given in patent US12421249B2, “Inhibitors of APOL1 and methods of using same” (Vertex Pharmaceuticals Incorporated, priority 2020, dated 2025).

Target: T1, APOL1 (Homo sapiens, UniProt O14791)
T1 sequence (O14791 1-398 S342G/I384M): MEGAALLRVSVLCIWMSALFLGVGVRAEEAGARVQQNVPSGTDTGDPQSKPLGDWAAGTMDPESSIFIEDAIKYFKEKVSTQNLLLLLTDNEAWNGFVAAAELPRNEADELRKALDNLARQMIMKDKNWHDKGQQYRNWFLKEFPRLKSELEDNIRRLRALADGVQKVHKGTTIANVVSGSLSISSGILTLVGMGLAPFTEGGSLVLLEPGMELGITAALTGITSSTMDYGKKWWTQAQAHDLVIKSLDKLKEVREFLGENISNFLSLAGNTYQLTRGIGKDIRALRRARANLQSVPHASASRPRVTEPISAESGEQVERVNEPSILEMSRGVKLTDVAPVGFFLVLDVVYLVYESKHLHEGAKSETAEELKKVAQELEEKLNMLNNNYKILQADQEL
Experiment: Multi-Tox Assay (MultiTox-Fluor Multiplex Cytotoxicity Assay in tet-inducible APOL1 T-REx-HEK293 cells; Table 46 does not say which APOL1 variant G0/G1/G2)
Format: cell-based
Details: APOL1 variant not given; for IC50: IP50 = IC50 for cell proliferation

`C[C@@H](CO)CCn1cc([C@@H]2CC3(C[C@H](C)N2)OCC(F)(F)c2cc(Cl)sc23)nn1` (stereo in doubt) [Compound 338] was tested, and the IC90 was < 50 nM, the “Multi-Tox Assay Max Activity (%)” value was 99.0% and the IC50 was < 50 nM.

`C#C[C@@H]1C[C@]2(C[C@H](C)N1)OCCc1cc(Cl)sc12` [Compound 221, (2S,4S,6S)-2′-chloro-2-ethynyl-6-methyl-4′,5′-dihydrospiro[piperidine-4,7′-thieno[2,3-c]pyran]] was tested, and the IC50 was < 50 nM.

`C#C[C@@H]1C[C@]2(C[C@H](C)N1)OC[C@@H](O)c1cc(Cl)sc12` [Compound 222, (2′S,4S,6′S,7S)-2-chloro-2′-ethynyl-6′-methyl-spiro[4,5-dihydrothieno[2,3-c]pyran-7,4′-piperidine]-4-ol] showed an IC50 of 50 to 500 nM.

For `C#C[C@@H]1C[C@]2(C[C@H](C)N1)OCC(F)(F)c1cc(Cl)sc12` [Compound 223, (2′S,6′S,7S)-2-chloro-2′-ethynyl-4,4-difluoro-6′-methyl-spiro[5H-thieno[2,3-c]pyran-7,4′-piperidine]], the IC50 was > 500 nM.

`C[C@H]1C[C@@]2(C[C@@H](c3cn(Cc4ccc(CO)cc4)nn3)N1)OC[C@@H](O)c1cc(Cl)sc12` [Compound 224, (2′S,4S,6′S,7S)-2-chloro-2′-[1-[[4-(hydroxymethyl)phenyl]methyl]triazol-4-yl]-6′-methyl-spiro[4,5-dihydrothieno[2,3-c]pyran-7,4′-piperidine]-4-ol] showed an IC50 of 50 to 500 nM.

With `C[C@H]1C[C@@]2(C[C@@H](c3cn(Cc4ccc(CO)cc4)nn3)N1)OCC(F)(F)c1cc(Cl)sc12` [Compound 225, (4-((4-((2S,4S,6S)-2′-chloro-4′,4′-difluoro-2-methyl-4′,5′-dihydrospiro[piperidine-4,7′-thieno[2,3-c]pyran]-6-yl)-1H-1,2,3-triazol-1-yl)methyl)phenyl)methanol] the “Multi-Tox Assay Max Activity (%)” value was 97.0% and the IC50 was 50 to 500 nM.

`COCC(O)Cn1cc([C@@H]2C[C@]3(C[C@H](C)N2)OC[C@@H](O)c2cc(Cl)sc23)nn1` (stereo partly shown) [Compound 226] was tested, and the “Multi-Tox Assay Max Activity (%)” value was 100.0% and the IC50 was 50 to 500 nM.

`C[C@H]1C[C@@]2(C[C@@H](c3cn(CC4CCCCO4)nn3)N1)OC[C@@H](O)c1cc(Cl)sc12` (stereo partly shown) [Compound 227] was tested, and the “Multi-Tox Assay Max Activity (%)” value was 100.0% and the IC50 was 50 to 500 nM.

For `C[C@H]1C[C@@]2(C[C@@H](c3cn(CCCS(C)(=O)=O)nn3)N1)OC[C@@H](O)c1cc(Cl)sc12` [Compound 228], the “Multi-Tox Assay Max Activity (%)” value was 100.0% and the IC50 was 50 to 500 nM.

With `COCCOCCn1cc([C@@H]2C[C@]3(C[C@H](C)N2)OC[C@@H](O)c2cc(Cl)sc23)nn1` [Compound 229] the “Multi-Tox Assay Max Activity (%)” value was 98.0% and the IC50 was 50 to 500 nM.

With `CC(C)C(=O)NCCn1cc([C@@H]2C[C@]3(C[C@H](C)N2)OC[C@@H](O)c2cc(Cl)sc23)nn1` [Compound 230] the “Multi-Tox Assay Max Activity (%)” value was 98.0% and the IC50 was 50 to 500 nM.

In the case of `C[C@H]1C[C@@]2(C[C@@H](c3cn(Cc4ccccc4S(C)(=O)=O)nn3)N1)OC[C@@H](O)c1cc(Cl)sc12` [Compound 231], the “Multi-Tox Assay Max Activity (%)” value is reported as 95.0% and the IC50 is reported as 50 to 500 nM.

In the case of `C[C@H]1C[C@@]2(C[C@@H](c3cn(Cc4n[nH]c5ccccc45)nn3)N1)OC[C@@H](O)c1cc(Cl)sc12` [Compound 232], the “Multi-Tox Assay Max Activity (%)” value is reported as 100.0% and the IC50 is reported as < 50 nM.

With `C[C@H]1C[C@@]2(C[C@@H](c3cn(CC4(O)CC4)nn3)N1)OC[C@@H](O)c1cc(Cl)sc12` [Compound 233] the “Multi-Tox Assay Max Activity (%)” value was 100.0% and the IC50 was 50 to 500 nM.

In the case of `C[C@H]1C[C@@]2(C[C@@H](c3cn(Cc4ncnc5[nH]ccc45)nn3)N1)OC[C@@H](O)c1cc(Cl)sc12` [Compound 234], the “Multi-Tox Assay Max Activity (%)” value is reported as 100.0% and the IC50 is reported as < 50 nM.

In the case of `Cc1cc(C)nc(CCn2cc([C@@H]3C[C@]4(C[C@H](C)N3)OC[C@@H](O)c3cc(Cl)sc34)nn2)c1` [Compound 235], the “Multi-Tox Assay Max Activity (%)” value is reported as 100.0% and the IC50 is reported as < 50 nM.

In the case of `C[C@H]1C[C@@]2(C[C@@H](c3cn(Cc4ccc(C#N)nc4)nn3)N1)OC[C@@H](O)c1cc(Cl)sc12` [Compound 236], the “Multi-Tox Assay Max Activity (%)” value is reported as 100.0% and the IC50 is reported as < 50 nM.

`Cc1noc(C)c1Cn1cc([C@@H]2C[C@]3(C[C@H](C)N2)OC[C@@H](O)c2cc(Cl)sc23)nn1` [Compound 237] was tested, and the “Multi-Tox Assay Max Activity (%)” value was 99.0% and the IC50 was < 50 nM.

`C[C@H]1C[C@@]2(C[C@@H](c3cn(Cc4ccc(S(C)(=O)=O)cc4)nn3)N1)OC[C@@H](O)c1cc(Cl)sc12` [Compound 238] showed an IC50 of 50 to 500 nM.

In the case of `C[C@H]1C[C@@]2(C[C@@H](c3cn(CC(=O)N4CCCCC4)nn3)N1)OC[C@@H](O)c1cc(Cl)sc12` [Compound 239], the “Multi-Tox Assay Max Activity (%)” value is reported as 97.0% and the IC50 is reported as 50 to 500 nM.

With `C[C@H]1C[C@@]2(C[C@@H](c3cn(CC4(CO)CCOCC4)nn3)N1)OC[C@@H](O)c1cc(Cl)sc12` [Compound 240] the “Multi-Tox Assay Max Activity (%)” value was 95.0% and the IC50 was 50 to 500 nM.

`C[C@H]1C[C@@]2(C[C@@H](c3cn(CCS(=O)(=O)Nc4ccccc4)nn3)N1)OC[C@@H](O)c1cc(Cl)sc12` [Compound 241] was tested, and the IC90 was 50 to 500 nM, the “Multi-Tox Assay Max Activity (%)” value was 97.0% and the IC50 was < 50 nM.

`C[C@H]1C[C@@]2(C[C@@H](c3cn(CC4(CO)CC4)nn3)N1)OC[C@@H](O)c1cc(Cl)sc12` [Compound 242] was tested, and the “Multi-Tox Assay Max Activity (%)” value was 97.0% and the IC50 was 50 to 500 nM.

With `C[C@H]1C[C@@]2(C[C@@H](c3cn(Cc4cnc5cnccn45)nn3)N1)OC[C@@H](O)c1cc(Cl)sc12` [Compound 243] the “Multi-Tox Assay Max Activity (%)” value was 98.0% and the IC50 was 50 to 500 nM.

For `C[C@H]1C[C@@]2(C[C@@H](c3cn(CCO)nn3)N1)OC[C@@H](O)c1cc(Cl)sc12` [Compound 244], the “Multi-Tox Assay Max Activity (%)” value was 100.0% and the IC50 was 50 to 500 nM.

`COc1ccc(Cn2cc([C@@H]3C[C@]4(C[C@H](C)N3)OC[C@@H](O)c3cc(Cl)sc34)nn2)cc1F` [Compound 245] was tested, and the “Multi-Tox Assay Max Activity (%)” value was 99.0% and the IC50 was < 50 nM.

In the case of `C[C@H]1C[C@@]2(C[C@@H](c3cn(C[C@@H](O)CO)nn3)N1)OC[C@@H](O)c1cc(Cl)sc12` [Compound 246], the “Multi-Tox Assay Max Activity (%)” value is reported as 97.0% and the IC50 is reported as 50 to 500 nM.

Compound `C[C@H]1C[C@@]2(C[C@@H](c3cn(CC(C)(C)O)nn3)N1)OC[C@@H](O)c1cc(Cl)sc12` [Compound 247] has an IC50 of 50 to 500 nM.

For `C[C@H]1C[C@@]2(C[C@@H](c3cn(Cc4cncs4)nn3)N1)OC[C@@H](O)c1cc(Cl)sc12` [Compound 248], the IC50 was < 50 nM.

For `C[C@H]1C[C@@]2(C[C@@H](c3cn(Cc4ccc5nc(O)[nH]c5c4)nn3)N1)OC[C@@H](O)c1cc(Cl)sc12` [Compound 249], the “Multi-Tox Assay Max Activity (%)” value was 92.0% and the IC50 was 50 to 500 nM.

With `C[C@H]1C[C@@]2(C[C@@H](c3cn(CC4CCC4)nn3)N1)OC[C@@H](O)c1cc(Cl)sc12` [Compound 250] the “Multi-Tox Assay Max Activity (%)” value was 95.0% and the IC50 was < 50 nM.

`Cc1nccn1CCCn1cc([C@@H]2C[C@]3(C[C@H](C)N2)OC[C@@H](O)c2cc(Cl)sc23)nn1` [Compound 251] was tested, and the “Multi-Tox Assay Max Activity (%)” value was 99.0% and the IC50 was 50 to 500 nM.

With `C[C@H]1C[C@@]2(C[C@@H](c3cn(CCC(C)(C)O)nn3)N1)OC[C@@H](O)c1cc(Cl)sc12` [Compound 252] the “Multi-Tox Assay Max Activity (%)” value was 100.0% and the IC50 was < 50 nM.

For `C[C@H]1C[C@@]2(C[C@@H](c3cn(Cc4ccc(C#N)cc4)nn3)N1)OC[C@@H](O)c1cc(Cl)sc12` [Compound 253], the “Multi-Tox Assay Max Activity (%)” value was 100.0% and the IC50 was < 50 nM.

In the case of `C[C@H]1C[C@@]2(C[C@@H](c3cn(CC4CCC(=O)NC4)nn3)N1)OC[C@@H](O)c1cc(Cl)sc12` (stereo partly shown) [Compound 254], the “Multi-Tox Assay Max Activity (%)” value is reported as 92.0% and the IC50 is reported as > 500 nM.

For `C[C@H]1C[C@@]2(C[C@@H](c3cn(CC#N)nn3)N1)OC[C@@H](O)c1cc(Cl)sc12` [Compound 255], the “Multi-Tox Assay Max Activity (%)” value was 100.0% and the IC50 was 50 to 500 nM.

For `CC(CO)Cn1cc([C@@H]2C[C@]3(C[C@H](C)N2)OC[C@@H](O)c2cc(Cl)sc23)nn1` (stereo partly shown) [Compound 256], the “Multi-Tox Assay Max Activity (%)” value was 96.0% and the IC50 was 50 to 500 nM.

`CCOCCn1cc([C@@H]2C[C@]3(C[C@H](C)N2)OC[C@@H](O)c2cc(Cl)sc23)nn1` [Compound 257] was tested, and the IC50 was < 50 nM.

In the case of `CNC(=O)C(C)Cn1cc([C@@H]2C[C@]3(C[C@H](C)N2)OC[C@@H](O)c2cc(Cl)sc23)nn1` (stereo partly shown) [Compound 258], the “Multi-Tox Assay Max Activity (%)” value is reported as 98.0% and the IC50 is reported as 50 to 500 nM.

For `C[C@H]1C[C@@]2(C[C@@H](c3cn(Cc4ccc(O)cc4)nn3)N1)OC[C@@H](O)c1cc(Cl)sc12` [Compound 259], the “Multi-Tox Assay Max Activity (%)” value was 100.0% and the IC50 was 50 to 500 nM.

With `Cc1cccc(OCC(O)Cn2cc([C@@H]3C[C@]4(C[C@H](C)N3)OC[C@@H](O)c3cc(Cl)sc34)nn2)c1` (stereo partly shown) [Compound 260] the “Multi-Tox Assay Max Activity (%)” value was 99.0% and the IC50 was < 50 nM.

In the case of `Cc1ccccc1C(O)Cn1cc([C@@H]2C[C@]3(C[C@H](C)N2)OC[C@@H](O)c2cc(Cl)sc23)nn1` (stereo partly shown) [Compound 261], the “Multi-Tox Assay Max Activity (%)” value is reported as 100.0% and the IC50 is reported as 50 to 500 nM.

In the case of `C[C@H]1C[C@@]2(C[C@@H](c3cn(CCc4ccncn4)nn3)N1)OC[C@@H](O)c1cc(Cl)sc12` [Compound 262], the “Multi-Tox Assay Max Activity (%)” value is reported as 99.0% and the IC50 is reported as 50 to 500 nM.

For `COC(=O)Cn1cc([C@@H]2C[C@]3(C[C@H](C)N2)OC[C@@H](O)c2cc(Cl)sc23)nn1` [Compound 263], the IC50 was > 500 nM.

With `CC(CO)CCn1cc([C@@H]2C[C@]3(C[C@H](C)N2)OC[C@@H](O)c2cc(Cl)sc23)nn1` (stereo partly shown) [Compound 264] the “Multi-Tox Assay Max Activity (%)” value was 100.0% and the IC50 was < 50 nM.

With `C[C@H]1C[C@@]2(C[C@@H](c3cn(CC4CCS(=O)(=O)C4)nn3)N1)OC[C@@H](O)c1cc(Cl)sc12` (stereo partly shown) [Compound 265] the “Multi-Tox Assay Max Activity (%)” value was 99.0% and the IC50 was 50 to 500 nM.
